Target: Mitogen-activated protein kinase 9 (Homo sapiens, UniProt P45984)
Test: Inhibition of His6-tagged JNK2 (unknown origin) assessed as reduction in c-Jun phosphorylation using GST-c-Jun (1 to 79 residues) and [gamma32P]ATP incubated for 1 hr by scintillation counting assay

Mitogen-activated protein kinase 9, sequence (P45984 whole entry, the tested form may be a part): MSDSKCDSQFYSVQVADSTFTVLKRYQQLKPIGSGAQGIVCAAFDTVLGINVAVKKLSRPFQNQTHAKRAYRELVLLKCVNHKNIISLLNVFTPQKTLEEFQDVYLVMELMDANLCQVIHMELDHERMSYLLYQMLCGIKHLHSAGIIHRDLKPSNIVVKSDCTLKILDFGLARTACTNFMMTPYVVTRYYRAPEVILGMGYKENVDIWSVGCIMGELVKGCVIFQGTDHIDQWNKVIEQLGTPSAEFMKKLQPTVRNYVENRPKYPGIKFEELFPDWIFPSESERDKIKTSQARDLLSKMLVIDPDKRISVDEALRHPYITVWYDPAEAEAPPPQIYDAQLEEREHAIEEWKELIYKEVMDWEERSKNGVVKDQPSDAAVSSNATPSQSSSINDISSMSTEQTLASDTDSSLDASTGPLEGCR

Row | Structure (SMILES) | IC50
1 | NC(=O)c1ccc2[nH]nc(-c3cc4ccccc4o3)c2c1 | 1 to 10 µM
2 | O=C(Nc1ccc2[nH]nc(-c3ccc(F)cc3)c2c1)c1ccccc1 | 1 to 10 µM
3 | NC(=O)c1ccc2[nH]nc(-c3cccc(NC(=O)CCc4ccccc4)c3)c2c1 | 1 to 10 µM
4 | c1ccc2ncc(-c3n[nH]c4ccc(-c5nc[nH]n5)cc34)cc2c1 | 1 to 10 µM
5 | NC(=O)c1ccc2[nH]nc(-c3cccc(NC(=O)c4cccs4)c3)c2c1 | 1 to 10 µM
6 | O=C(Cc1ccccc1)c1ccc2[nH]nc(-c3ccc(F)cc3)c2c1 | ≤ 10 µM
7 | Fc1ccc(-c2n[nH]c3ccc(-c4n[nH]c(CN5CCCCC5)n4)cc23)cc1 | 1 to 10 µM
8 | CC(C)NC(=O)c1ccc2[nH]nc(-c3cc4ccccc4o3)c2c1 | 1 to 10 µM
9 | O=C(Nc1cccc(-c2n[nH]c3ccc(-c4nc[nH]n4)cc23)c1)c1ccc(Cl)cc1Cl | 1 to 10 µM
10 | Nc1cccc(C(=O)Nc2ccc3[nH]nc(-c4ccccc4)c3c2)c1 | 1 to 10 µM
11 | C[C@H](NC(=O)c1cccc(-c2n[nH]c3ccc(-c4ncn[nH]4)cc23)c1)c1ccccc1 | 1 to 10 µM
12 | NC(=O)CCNC(=O)c1ccc2[nH]nc(-c3ccc(F)cc3)c2c1 | 1 to 10 µM
13 | NC(=O)c1ccc2[nH]nc(C#Cc3ccccc3)c2c1 | 1 to 10 µM
14 | CN(C)CC(=O)Nc1cccc(-c2n[nH]c3ccc(C(N)=O)cc23)c1 | 1 to 10 µM
15 | O=C(NCc1ccncc1)c1ccc2[nH]nc(-c3ccc(F)cc3)c2c1 | 1 to 10 µM
16 | O=C(Nc1ccc(-c2n[nH]c3ccc(-c4nc[nH]n4)cc23)cc1)c1cccnc1 | 1 to 10 µM

Continued, values first:

Row | IC50 | Structure (SMILES)
17 | ≤ 10 µM | O=[N+]([O-])c1cccc(/C=C/c2ccc3[nH]nc(-c4ccc(F)cc4)c3c2)c1
18 | 0.5 to 10 µM | O=C(Cc1ccccc1)Nc1cccc(-c2n[nH]c3ccc(-c4nnc[nH]4)cc23)c1
19 | ≤ 10 µM | O=[N+]([O-])c1ccc2[nH]nc(-c3ccoc3)c2c1
20 | ≤ 10 µM | Fc1ccc(-c2n[nH]c3ccc(/C=C/c4ccccn4)cc23)cc1
21 | ≤ 10 µM | O=C(NCCCN1CCOCC1)c1ccc2[nH]nc(-c3ccc(F)cc3)c2c1
22 | ≤ 10 µM | O=C(Nc1ccc2[nH]nc(-c3ccc(F)cc3)c2c1)C1CC1
23 | 0.5 to 10 µM | COCCNC(=O)c1cccc(-c2n[nH]c3ccc(-c4nc[nH]n4)cc23)c1
24 | 0.5 to 10 µM | O=C(NCCC1CCN(Cc2ccccc2)CC1)c1cccc(-c2n[nH]c3ccc(-c4nc[nH]n4)cc23)c1

From ChEMBL document CHEMBL3882725, “Indazole derivatives as JNK inhibitors and compositions and methods related thereto” (2002)
